Data taken from patent publication US12590118B2, “Salt and crystal form of steroid derivative regulator” (Shanghai Hansoh Biomedical Co., Ltd., priority 2019, dated 2026).

Key:
[1] = Crystal form stability experiment (XRPD); format: physicochemical
Method: X-ray powder diffraction assay was carried out, and the obtained data was compared with the initial data.

[2] = Hygroscopicity experiment (DVS); format: physicochemical
Method: The hygroscopicity of crystal forms I, II and III of the free base of Example 40 under different relative humidity conditions was investigated, so as to provide a basis for screening of the crystal form and salt of the compound, production and storage.
10 to 15 mg of the free base of Example 40 was placed in the sample chamber of DVS. DVS was carried out, and the vapour sorption weight gain percentage of the compound at 80% RH was recorded at the same time.

## C[C@@H]1C[C@H](C(=O)Cn2ccc(C#N)n2)[C@@]2(C)CC[C@H]3[C@@H](CC[C@@H]4C[C@](C)(O)CC[C@@H]43)[C@H]12 [Crystal form I, 1-(2-((3R,5R,8R,9R,10S,13S,14S,15R,17S)-3-Hydroxy-3,13,15-trimethylhexadecahydro-1H-cyclopenta[a]phenanthren-17-yl)-2-oxoethyl)-1H-pyrazole-3-carbonitrile]
[1]; 0 day (initial)
  X-ray powder diffraction peak No. 1: 7.3
  X-ray powder diffraction peak No. 2: 11.1
  X-ray powder diffraction peak No. 3: 11.9
  X-ray powder diffraction peak No. 4: 12.6
  X-ray powder diffraction peak No. 5: 16.7
  X-ray powder diffraction peak No. 6: 17.4
  X-ray powder diffraction peak No. 7: 20.2
  X-ray powder diffraction peak No. 8: 20.6
  X-ray powder diffraction peak No. 9: 21.9
  X-ray powder diffraction peak No. 10: 23.9
  X-ray powder diffraction peak No. 11: 38.4
[1]; 25° C. RH75%, 5 days
  X-ray powder diffraction peak No. 1: 7.3
  X-ray powder diffraction peak No. 2: 11.0
  X-ray powder diffraction peak No. 3: 11.8
  X-ray powder diffraction peak No. 4: 12.5
  X-ray powder diffraction peak No. 5: 16.6
  X-ray powder diffraction peak No. 6: 17.3
  X-ray powder diffraction peak No. 7: 20.1
  X-ray powder diffraction peak No. 8: 20.5
  X-ray powder diffraction peak No. 9: 21.7
  X-ray powder diffraction peak No. 10: 24.1
  X-ray powder diffraction peak No. 11: 38.2
[1]; 25° C. RH75%, 10 days
  X-ray powder diffraction peak No. 1: 7.3
  X-ray powder diffraction peak No. 2: 11.0
  X-ray powder diffraction peak No. 3: 11.8
  X-ray powder diffraction peak No. 4: 12.5
  X-ray powder diffraction peak No. 5: 16.6
  X-ray powder diffraction peak No. 6: 17.3
  X-ray powder diffraction peak No. 7: 20.1
  X-ray powder diffraction peak No. 8: 20.5
  X-ray powder diffraction peak No. 9: 21.8
  X-ray powder diffraction peak No. 10: 24.1
  X-ray powder diffraction peak No. 11: 38.2
[1]; 25° C. RH75%, 30 days
  X-ray powder diffraction peak No. 1: 7.1
  X-ray powder diffraction peak No. 2: 11.2
  X-ray powder diffraction peak No. 3: 11.7
  X-ray powder diffraction peak No. 4: 12.4
  X-ray powder diffraction peak No. 5: 16.5
  X-ray powder diffraction peak No. 6: 17.2
  X-ray powder diffraction peak No. 7: 20.0
  X-ray powder diffraction peak No. 8: 20.7
  X-ray powder diffraction peak No. 9: 22.0
  X-ray powder diffraction peak No. 10: 24.0
  X-ray powder diffraction peak No. 11: 38.2
[1]; 25° C. RH90%, 5 days
  X-ray powder diffraction peak No. 1: 7.2
  X-ray powder diffraction peak No. 2: 11.0
  X-ray powder diffraction peak No. 3: 11.8
  X-ray powder diffraction peak No. 4: 12.5
  X-ray powder diffraction peak No. 5: 16.5
  X-ray powder diffraction peak No. 6: 17.3
  X-ray powder diffraction peak No. 7: 20.1
  X-ray powder diffraction peak No. 8: 20.5
  X-ray powder diffraction peak No. 9: 21.7
  X-ray powder diffraction peak No. 10: 24.1
  X-ray powder diffraction peak No. 11: 38.3
[1]; 25° C. RH90%, 10 days
  X-ray powder diffraction peak No. 1: 7.2
  X-ray powder diffraction peak No. 2: 11.0
  X-ray powder diffraction peak No. 3: 11.8
  X-ray powder diffraction peak No. 4: 12.5
  X-ray powder diffraction peak No. 5: 16.6
  X-ray powder diffraction peak No. 6: 17.3
  X-ray powder diffraction peak No. 7: 20.2
  X-ray powder diffraction peak No. 8: 20.5
  X-ray powder diffraction peak No. 9: 21.8
  X-ray powder diffraction peak No. 10: 23.8
  X-ray powder diffraction peak No. 11: 38.3
[1]; 25° C. RH90%, 30 days
  X-ray powder diffraction peak No. 1: 7.2
  X-ray powder diffraction peak No. 2: 11.0
  X-ray powder diffraction peak No. 3: 11.8
  X-ray powder diffraction peak No. 4: 12.5
  X-ray powder diffraction peak No. 5: 16.6
  X-ray powder diffraction peak No. 6: 17.3
  X-ray powder diffraction peak No. 7: 20.1
  X-ray powder diffraction peak No. 8: 20.5
  X-ray powder diffraction peak No. 9: 21.8
  X-ray powder diffraction peak No. 10: 24.0
  X-ray powder diffraction peak No. 11: 38.2
[1]; 40° C., 5 days
  X-ray powder diffraction peak No. 1: 7.2
  X-ray powder diffraction peak No. 2: 11.0
  X-ray powder diffraction peak No. 3: 11.8
  X-ray powder diffraction peak No. 4: 12.5
  X-ray powder diffraction peak No. 5: 16.6
  X-ray powder diffraction peak No. 6: 17.3
  X-ray powder diffraction peak No. 7: 20.1
  X-ray powder diffraction peak No. 8: 20.5
  X-ray powder diffraction peak No. 9: 22.1
  X-ray powder diffraction peak No. 10: 23.8
  X-ray powder diffraction peak No. 11: 38.3
[1]; 40° C., 10 days
  X-ray powder diffraction peak No. 1: 7.3
  X-ray powder diffraction peak No. 2: 11.0
  X-ray powder diffraction peak No. 3: 11.8
  X-ray powder diffraction peak No. 4: 12.5
  X-ray powder diffraction peak No. 5: 16.6
  X-ray powder diffraction peak No. 6: 17.3
  X-ray powder diffraction peak No. 7: 20.2
  X-ray powder diffraction peak No. 8: 20.5
  X-ray powder diffraction peak No. 9: 21.9
  X-ray powder diffraction peak No. 10: 23.8
  X-ray powder diffraction peak No. 11: 38.2
[1]; 40° C., 30 days
  X-ray powder diffraction peak No. 1: 7.2
  X-ray powder diffraction peak No. 2: 11.0
  X-ray powder diffraction peak No. 3: 11.8
  X-ray powder diffraction peak No. 4: 12.5
  X-ray powder diffraction peak No. 5: 16.6
  X-ray powder diffraction peak No. 6: 17.3
  X-ray powder diffraction peak No. 7: 20.1
  X-ray powder diffraction peak No. 8: 20.5
  X-ray powder diffraction peak No. 9: 22.0
  X-ray powder diffraction peak No. 10: 23.7
  X-ray powder diffraction peak No. 11: 38.2
[1]; 60° C., 5 days
  X-ray powder diffraction peak No. 1: 7.1
  X-ray powder diffraction peak No. 2: 10.9
  X-ray powder diffraction peak No. 3: 11.7
  X-ray powder diffraction peak No. 4: 12.4
  X-ray powder diffraction peak No. 5: 16.5
  X-ray powder diffraction peak No. 6: 17.2
  X-ray powder diffraction peak No. 7: 20.0
  X-ray powder diffraction peak No. 8: 20.7
  X-ray powder diffraction peak No. 9: 22.0
  X-ray powder diffraction peak No. 10: 24.0
  X-ray powder diffraction peak No. 11: 38.2
[1]; 60° C., 10 days
  X-ray powder diffraction peak No. 1: 7.2
  X-ray powder diffraction peak No. 2: 10.9
  X-ray powder diffraction peak No. 3: 11.7
  X-ray powder diffraction peak No. 4: 12.4
  X-ray powder diffraction peak No. 5: 16.5
  X-ray powder diffraction peak No. 6: 17.2
  X-ray powder diffraction peak No. 7: 20.1
  X-ray powder diffraction peak No. 8: 20.7
  X-ray powder diffraction peak No. 9: 22.0
  X-ray powder diffraction peak No. 10: 24.0
  X-ray powder diffraction peak No. 11: 38.2
[1]; 60° C., 30 days
  X-ray powder diffraction peak No. 1: 7.2
  X-ray powder diffraction peak No. 2: 11.0
  X-ray powder diffraction peak No. 3: 11.8
  X-ray powder diffraction peak No. 4: 12.5
  X-ray powder diffraction peak No. 5: 16.6
  X-ray powder diffraction peak No. 6: 17.3
  X-ray powder diffraction peak No. 7: 20.1
  X-ray powder diffraction peak No. 8: 20.4
  X-ray powder diffraction peak No. 9: 21.8
  X-ray powder diffraction peak No. 10: 23.8
  X-ray powder diffraction peak No. 11: 38.2
[1]; Light, 5 days
  X-ray powder diffraction peak No. 1: 7.3
  X-ray powder diffraction peak No. 2: 11.0
  X-ray powder diffraction peak No. 3: 11.9
  X-ray powder diffraction peak No. 4: 12.5
  X-ray powder diffraction peak No. 5: 16.6
  X-ray powder diffraction peak No. 6: 17.3
  X-ray powder diffraction peak No. 7: 20.1
  X-ray powder diffraction peak No. 8: 20.6
  X-ray powder diffraction peak No. 9: 22.1
  X-ray powder diffraction peak No. 10: 23.9
  X-ray powder diffraction peak No. 11: 38.3
[1]; Light, 10 days
  X-ray powder diffraction peak No. 1: 7.3
  X-ray powder diffraction peak No. 2: 11.1
  X-ray powder diffraction peak No. 3: 11.9
  X-ray powder diffraction peak No. 4: 12.5
  X-ray powder diffraction peak No. 5: 16.7
  X-ray powder diffraction peak No. 6: 17.3
  X-ray powder diffraction peak No. 7: 20.2
  X-ray powder diffraction peak No. 8: 20.5
  X-ray powder diffraction peak No. 9: 21.9
  X-ray powder diffraction peak No. 10: 23.9
  X-ray powder diffraction peak No. 11: 38.3
[1]; light, 40° C., 60° C., 25° C./RH75%, 25° C./RH90%, 5, 10 and 30 days
  crystal form stability by XRPD (in words): No crystal form conversion had occurred
[2]; DVS
  hygroscopicity (in words): no hygroscopicity
[2]; DVS vapour sorption weight gain at 80% RH, 25° C.
  Hygroscopicity (25° C./80% RH): 0.07%
